Like-named read-outs stand apart in the source and are kept apart here.
Columns and labels:
Cluster 2 (962 genes) = test: RNAseq whole blood transcriptomics, WGCNA Cluster 2 and pathway analysis; parameters: species or system human; details: for Number of pathways significantly overrepresented in second cluster: among its 317 pathways
Procedure: (§1) In order to gain insights into ANAVEX 2-73 response pathways, during the Phase 2 study, patients' DNA and RNA sequencing were analyzed. Transcriptomic samples of 65 patients enrolled in either High Dose or Mid Dose arms were collected at baseline and at the end of treatment (Week 14). The expression of 14,150 genes was measured. No transformation was applied to the TPM values. Values associated with a with RIN s 4.0 were discarded. The actual dose of ANAVEX 2-73 (blarcamesine) that was given to each patient during the trial was assessed and integrated into the database. To characterize the gene dysregulations, a pathway database was built using an aggregation of public databases including KEGG, Panther, Allen, Brain Atlas, Gene Ontology, and Reactome.
The genes were clustered together using WGCNA, starting from their correlation of TPM expression values across samples. Seventeen clusters with size ranging from 13 to 11,190 genes were obtained through this gene clusterisation. The TPM expression values of genes in clusters were then aggregated in a single “eigengene” for each cluster. This eigengene served as a representant of the overall dysregulation of the cluster. Secondly, a cluster filtering was performed, wherein patients' arm and dose information were taken into account based on mixed effect models. For each cluster, the eigengene was used as target variable of a linear mixed effect model with 3 covariates: ActualDose, Patient, and timepoint. For each cluster, the contrast ActualDose, i.e. treated vs placebo were evaluated across all timepoints. P-values were obtained with Dunnett's test. Regardless of the cluster and pathway, pathways with less than 4 genes in a cluster were removed, to compensate for the large variability of cluster size and corresponding variability of number of pathways identified in each clusters. The ratio between cluster size and number of pathways was calculated, and top 2 clusters were retained for further Analysis. Cluster 1 contained 213 genes (n1=213) and 37 pathways, and Cluster 2 contained 962 genes (n2=962) and 317 pathways. […] Thirdly, the two retained clusters were characterized and underwent pathway analysis. The characterization and analysis were applied to all the genes of the cluster (whole cluster), and to the genes of the clusters that are known to have biological interactions (reduced cluster). In the whole cluster analysis, overrepresented pathways were identified using EnrichR package with the parameters of Fisher's adjusted p-value p<0.05 (Benjamini-Hochberg adjustment for multiple testing) and minimum pathway size 20. In the reduced cluster analysis, genes that have no interaction with any other genes of the cluster were discarded, resulting in a reduced cluster. Pathway analysis was performed on these reduced clusters. False Discovery Rate with adjustment for multiple testing (Benjamini-Hochberg procedure) was used to characterize pathways' over-representation. Known interactions between the genes of the cluster were assessed using STRING database with the parameters of Edge score >0.150, and no text mining edges. Known interactions were obtained from public databases, such as KEGG, Panther, Allen, Brain Atlas, Gene Ontology, and Reactome.
(§2) Whole Blood Transcriptomics Analysis (RNAseq) of patients with Parkinson's disease with dementia (PDD) was performed for the ANAVEX®2-73-PDD-001 study (FIG. 1) at two timepoints: Baseline and Week 14 (end of trial). All available RNA samples with […] (RNA integrity number, using 130 samples) were analyzed. The expression of 14,150 genes at these two timepoints were analyzed from both placebo and ANAVEX® 2-73 treated patients.
The above method was performed as illustrated in FIG. 2B. […] Then, the cluster's eigengene3 (one of a set of a genes matrix that tabulates the mRNA or gene expression of the genes across the sample) was used as summary of expression level of the cluster. […]

[1] = tested on: gene clusters differentially expressed in PDD patients; test: RNAseq whole blood transcriptomics, gene clusters overall; parameters: species or system human
Procedure: as §1
The genes were clustered together using WGCNA, starting from their correlation of TPM expression values across samples. Seventeen clusters with size ranging from 13 to 11,190 genes were obtained through this gene clusterisation. The TPM expression values of genes in clusters were then aggregated in a single “eigengene” for each cluster. This eigengene served as a representant of the overall dysregulation of the cluster. […] For each cluster, the contrast ActualDose, i.e. treated vs placebo were evaluated across all timepoints. […] The ratio between cluster size and number of pathways was calculated, and top 2 clusters were retained for further Analysis. […] Known interactions between the genes of the cluster were assessed using STRING database with the parameters of Edge score >0.150, and no text mining edges. […]
as §2, with “patients. […]” for “patients.”

SIGMAR1 = SIGMAR1 levels in PDD-001 patients; type: in vivo, human; details: PDD-001 study
Procedure: The trial enrolled 132 adults, ages 50-85, with PDD, and was successfully concluded in September 2020. Participants, recruited at multiple sites in Spain and Australia, were randomly assigned to one of two doses groups (with an escalating ANAVEX 2-73 dose up to 30 or 50 mg oral capsules) or to a placebo, once daily for 14 weeks (see FIG. 1 for details). The trial's main goals were to assess the therapy's safety and changes in patients' cognitive function, measured using the cognitive drug research computerized assessment system—a test that looks at multiple cognitive skills, such as choice reaction time (choosing between similar objects), vigilance, and episodic memory (remembering new personal experiences or shared information). Secondary goals included changes in patients' motor abilities—assessed with the Movement Disorders Society Unified Parkinson's Disease Rating Scale (MDS-UPDRS) Part III—and sleep quality. […] This sleep disorder is associated with greater cognitive impairment and a higher risk of dementia. […] After 14 weeks, the MDS-UPDRS total score dropped by 10.98 points (indicating an easing in disease severity) in the high-dose group and rose by 3.53 points in the placebo group. This represented an adjusted mean improvement of 14.51 points—surpassing the established, clinically meaningful 7.1 point-cut-off—and a relative improvement of 18.9% over 14 weeks. […]

[2] = tested on: Sigma-1 receptor (SIGMAR1); details: cited from earlier work

## CN(C)CC1CCOC1(c1ccccc1)c1ccccc1.Cl (stereo not shown) [ANAVEX2-73, tetrahydro-N,N-dimethyl-2,2-diphenyl-3-furanmethanamine hydrochloride]
Cluster 2 (962 genes)
  Overlap: 45/273
Cluster 2 (962 genes); listed as ANAVEX 2-73, hydrochloride
  Number of pathways significantly overrepresented in second cluster: 15 pathways
Cluster 2 (962 genes); listed as ANAVEX® 2-73, hydrochloride
  Number of pathways significantly overrepresented in second cluster: 10 pathways
Cluster 2 (962 genes); genes of pathway in Cluster 2/genes in pathway, KEGG 2021, Alzheimer disease
  Overlap: 47/369
Cluster 2 (962 genes); genes of pathway in Cluster 2/genes in pathway, KEGG 2021, Amyotrophic lateral sclerosis
  Overlap: 46/364
Cluster 2 (962 genes); genes of pathway in Cluster 2/genes in pathway, KEGG 2021, Cardiac muscle contraction
  Overlap: 11/87
Cluster 2 (962 genes); genes of pathway in Cluster 2/genes in pathway, KEGG 2021, Coronavirus disease
  Overlap: 80/232
Cluster 2 (962 genes); genes of pathway in Cluster 2/genes in pathway, KEGG 2021, Diabetic cardiomyopathy
  Overlap: 36/203
Cluster 2 (962 genes); genes of pathway in Cluster 2/genes in pathway, KEGG 2021, Huntington disease
  Overlap: 48/306
Cluster 2 (962 genes); genes of pathway in Cluster 2/genes in pathway, KEGG 2021, Non-alcoholic fatty liver disease
  Overlap: 34/155
Cluster 2 (962 genes); genes of pathway in Cluster 2/genes in pathway, KEGG 2021, OProteasome
  Overlap: 9/46
Cluster 2 (962 genes); genes of pathway in Cluster 2/genes in pathway, KEGG 2021, Oxidative phosphorylation
  Overlap: 36/133
Cluster 2 (962 genes); genes of pathway in Cluster 2/genes in pathway, KEGG 2021, Parkinson disease
  Overlap: 46/249
Cluster 2 (962 genes); genes of pathway in Cluster 2/genes in pathway, KEGG 2021, Pathways of neurodegeneration
  Overlap: 50/475
Cluster 2 (962 genes); genes of pathway in Cluster 2/genes in pathway, KEGG 2021, Retrograde endocannabinoid signaling
  Overlap: 24/148
Cluster 2 (962 genes); genes of pathway in Cluster 2/genes in pathway, KEGG 2021, Ribosome
  Overlap: 96/158
Cluster 2 (962 genes); genes of pathway in Cluster 2/genes in pathway, KEGG 2021, Thermogenesis
  Overlap: 45/232
Cluster 2 (962 genes); genes of term in Cluster 2/genes in term, Allen Brain Atlas, Anterior olfactory nucleus
  Overlap: 27/300
Cluster 2 (962 genes); genes of term in Cluster 2/genes in term, Allen Brain Atlas, Anterior olfactory nucleus, external part
  Overlap: 34/300
Cluster 2 (962 genes); genes of term in Cluster 2/genes in term, Allen Brain Atlas, Anterior olfactory nucleus, layer 1
  Overlap: 36/300
Cluster 2 (962 genes); genes of term in Cluster 2/genes in term, Allen Brain Atlas, Main olfactory bulb
  Overlap: 31/300
Cluster 2 (962 genes); genes of term in Cluster 2/genes in term, Allen Brain Atlas, Main olfactory bulb, glomerular layer
  Overlap: 36/300
Cluster 2 (962 genes); genes of term in Cluster 2/genes in term, Allen Brain Atlas, Main olfactory bulb, inner plexiform layer
  Overlap: 28/300
Cluster 2 (962 genes); genes of term in Cluster 2/genes in term, Allen Brain Atlas, Main olfactory bulb, mitral layer
  Overlap: 28/300
Cluster 2 (962 genes); genes of term in Cluster 2/genes in term, Allen Brain Atlas, Main olfactory bulb, outer plexiform layer
  Overlap: 30/300
Cluster 2 (962 genes); genes of term in Cluster 2/genes in term, Allen Brain Atlas, OB olfactory fiber layer
  Overlap: 33/300
Cluster 2 (962 genes); genes of term in Cluster 2/genes in term, Allen Brain Atlas, Olfactory areas
  Overlap: 27/300
Cluster 2 (962 genes); genes of term in Cluster 2/genes in term, Allen Brain Atlas, Olfactory bulb, principal part
  Overlap: 32/300
Cluster 2 (962 genes); high oral dose vs placebo
  Cluster 2 eigengene expression: significantly increased
Cluster 2 (962 genes); n2=962 genes
  Number of brain areas significantly overrepresented in second cluster: 74 brain areas
Cluster 2 (962 genes); out of 74
  Number of overrepresented brain areas linked to the olfactory bulb: 11 brain areas
[1]; Dunnett's test, linear mixed-effect model
  Number of clusters with significant association between treatment and estimated marginal mean expression: 6 clusters
[1]; highest dose
  Dysregulations of Clusters 1 and 2: significantly linked to the highest dose
[1]; treated patients compared to placebo, 14 weeks
  Regulation of both identified clusters: up-regulated
SIGMAR1
  SIGMAR1 levels: significant increase
SIGMAR1; attention measures, MDS-UPDRS total and Part III
  Association of rise in SIGMAR1 levels with clinical response: significantly associated with improvements in attention measures, and reductions in both MDS-UPDRS total and MDS-UPDRS Part III (motor scores)
[2]
  Sigma-1 receptor (SIGMAR1) activity: agonist
